Test results: patent publication US20250092065A1, “2-(INDAZOL-5-YL)-6-(PIPERIDIN-4-YL)-1,7-NAPHTHYRIDINE DERIVATIVES AND RELATED COMPOUNDS AS MODULATORS FOR SPLICING NUCLEIC ACIDS AND FOR THE TREATMENT OF PROLIFERATIVE DISEASES” (REMIX THERAPEUTICS INC., priority 2022, published 2025)
Where two headings read alike, the source gives them in different places.

Experiments:
HTT mRNA = assay: RT-qPCR splicing assay, HTT mRNA canonical (CJ) and alternative (AJ) junction; assay type: cell-based, human; conditions: Homo sapiens; for AC50: HTT alternative junction mRNA, read-out: HTT AJ (increase in AJ mRNA, AC50)
How it was run: (§1)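 Both isoforms, CJ and AJ, read by qPCR from crude lysates of treated A673 or K562 cells; 24 h, 37 °C, maximum 10 uM. Normalization: housekeeper ΔCt, then DMSO ΔΔCt.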

MYB mRNA = assay: RT-qPCR splicing assay, MYB mRNA canonical (CJ) and alternative (AJ) junction; assay type: cell-based, human; conditions: Homo sapiens; for AC50: MYB alternative junction mRNA, read-out: MYB AJ (increase in AJ mRNA, AC50)
How it was run: as §1

Target C = assay: HiBiT protein abundance assay, Target C (K562 HiBiT knock-in); assay type: cell-based, human; conditions: HiBiT knock-in K562 cells, 24 hours, top dose 10 μM
Method: (§2) Cells were maintained in IMIDM with 10% FBS. Before the assay, cells were diluted with […] growth media (IMIDM+[…] media) and were seeded in a 384-well plate at a density of 10000 cells/well (for each cell line listed in Table 6). Each compound was prepared as a 10-point 3-fold serial dilution in DMSO with the top dose at a final concentration of 10 μM in the well. Unmodified K562 cells were added at the previously specified density with DMSO to serve as an assay baseline and positive control (PC) and DMSO only with the respective modified cell lines was added to the negative control (NC) columns. Final DMSO concentration was kept at or below 0.25%. Treated cell plates were placed in an incubator at 37° C. with […] for 24 hours. After 24 hours, 25 μL of Complete HiBit Lytic reagent was added to each well at room temperature (e.g. one plate requiring 10 mL Lytic Buffer, 100 μL LgBiT Protein, 200 μL Lytic Substrate), shaken for 5 minutes at 600 RPM, then left to sit for 10 minutes for signal to stabilize before reading on a Spark Cyto plate reader (Tecan) with a 500 ms measurement time.
(§3) To determine compound effects on protein abundance of each target in Table 6, the percent response for each respective cell line was calculated at each compound concentration as follows:
(§4) % response=100*(S−PC)(NC−PC)
(§5) For the normalized response at each concentration, a four-parameter logistical regression was fit to the data and the response was interpolated at the […] to determine a concentration for protein abundance at 50% (IC50) the untreated control.

HTT = assay: HiBiT protein abundance assay, HTT (K562 HiBiT knock-in); assay type: cell-based, human; conditions: HiBiT knock-in K562 cells, 24 hours, top dose 10 μM
Method: (§6) Compounds described herein were used to screen for effects on quantitative protein abundance using a HiBit assay system (Promega). Quantitative protein abundance was determined by measuring the protein levels of HiBit-tagged protein targets expressed in cell culture via luminescence using the Nano-Glo HiBiT Lytic Detection System, which uses a split complementation assay format to reconstitute NanoBiT enzyme to generate a luminescent signal. A protein abundance assay was developed such that endogenous protein targets could be modified with the HiBiT peptide tag and their abundance could be assessed after compound treatment. Briefly, K562 cell lines containing a HiBiT-modification were treated with various compounds described herein (e.g., compounds of Formulas (I), or (II)). After treatment for 24 hours, the protein abundance of a specific target was determined by measuring luminescence.
as §2, §3, §4, §5

MYB = assay: HiBiT protein abundance assay, MYB (K562 HiBiT knock-in); assay type: cell-based, human; conditions: HiBiT knock-in K562 cells, 24 hours, top dose 10 μM
Method: as §6, §2, §3, §4, §5

K562 cells = assay: Cell Titer Glo 2.0 cell viability (toxicity) assay, K562; conditions: 500 cells/well, 72 hours
SMN2 mRNA = assay: RT-qPCR splicing assay, SMN2 mRNA; assay type: cell-based, human; conditions: Homo sapiens, canonical junction qPCR panel, Table 4; read-out: SMN2 IC50 (decrease in CJ mRNA levels)
How it was run: as §1

[1] = HTT canonical junction mRNA, RT-qPCR, read-out: HTT CJ (decrease in CJ mRNA levels, IC50)
[2] = canonical junction qPCR panel, Table 4, read-out: HTT IC50 (decrease in CJ mRNA levels)
[3] = MYB canonical junction mRNA, RT-qPCR, read-out: MYB CJ (decrease in CJ mRNA levels, IC50)
[4] = canonical junction qPCR panel, Table 4, read-out: MYB IC50 (decrease in CJ mRNA levels)

| IC50 (HTT mRNA; [1]) [µM] | IC50 (HTT mRNA; [2]) [µM] | IC50 (MYB mRNA; [3]) [µM] | IC50 (MYB mRNA; [4]) [µM] | IC50 (Target C) [µM] | IC50 (HTT) [µM] | IC50 (MYB) [µM] | IC50 (SMN2 mRNA) [µM] | Structure (SMILES) | AC50 (HTT mRNA; RT-qPCR) [µM] | AC50 (MYB mRNA; RT-qPCR) [µM] | Effect of Exemplary Compounds on Cell Viability, K562 (K562 cells) |
| --- | --- | --- | --- | --- | --- | --- | --- | --- | --- | --- | --- |
| < 0.1 | < 0.1 | 0.1 to 1 | 0.1 to 1 | < 0.1 | < 0.1 | 0.1 to 1 | < 0.1 | Cn1cc2cc(-c3ccc4nc(N5CC6(CNC6)C5)ccc4n3)c(O)cc2n1 [Compound 124] | 0.1 to 1 | 0.1 to 1 | B (B represents 100-1000 nM) |
| 0.1 to 1 | 0.1 to 1 | 0.1 to 1 | 0.1 to 1 | 0.1 to 1 | 0.1 to 1 | 0.1 to 1 | < 0.1 | Cn1cc2cc(-c3ccc4nc(N5CCC(N6CCCC6)C5)ccc4n3)c(O)cc2n1 (centres unmarked) [Compound 125] | 0.1 to 1 | < 0.1 | B (B represents 100-1000 nM) |
| < 0.1 | < 0.1 | < 0.1 | < 0.1 | < 0.1 | < 0.1 | < 0.1 | < 0.1 | Cn1cc2cc(-c3ccc4nc(N5CCC(NC(C)(C)C)C5)ccc4n3)c(O)cc2n1 (centres unmarked) [Compound 127] | < 0.1 | < 0.1 | B (B represents 100-1000 nM) |
| 0.1 to 1 | 0.1 to 1 | 0.1 to 1 | 0.1 to 1 | 0.1 to 1 | 0.1 to 1 | 0.1 to 1 | < 0.1 | CN(C)C1CCN(c2ccc3nc(-c4cc5cn(C)nc5cc4O)ccc3n2)C1 (centres unmarked) [Compound 129] | 0.1 to 1 | 0.1 to 1 | B (B represents 100-1000 nM) |

The remaining lines, values behind:

| Structure (SMILES) | IC50 (HTT mRNA; [1]) [µM] | IC50 (HTT mRNA; [2]) [µM] | IC50 (MYB mRNA; [3]) [µM] | IC50 (MYB mRNA; [4]) [µM] | IC50 (Target C) [µM] | IC50 (HTT) [µM] | IC50 (MYB) [µM] | IC50 (SMN2 mRNA) [µM] | AC50 (HTT mRNA; RT-qPCR) [µM] | AC50 (MYB mRNA; RT-qPCR) [µM] | Effect of Exemplary Compounds on Cell Viability, K562 (K562 cells) |
| --- | --- | --- | --- | --- | --- | --- | --- | --- | --- | --- | --- |
| Cn1cc2c(O)c(-c3ncc4nc(C5CCNCC5)ccc4n3)ccc2n1 [Compound 108] | 1 to 10 | 1 to 10 | 1 to 10 | 1 to 10 | 0.1 to 1 | 0.1 to 1 | 0.1 to 1 | < 0.1 | 1 to 10 | 1 to 10 | B (B represents 100-1000 nM) |
| Cn1cc2cc(-c3ccc4cc(C5CCNCC5)ccc4n3)c(O)cc2n1 [Compound 109] | < 0.1 | < 0.1 | < 0.1 | < 0.1 | < 0.1 | < 0.1 | < 0.1 | < 0.1 | 0.1 to 1 | 0.1 to 1 | B (B represents 100-1000 nM) |
| Cn1cc2cc(-c3ccc4c(F)c(C5CCNCC5)ccc4n3)c(O)cc2n1 [Compound 115] | 1 to 10 | 1 to 10 | 0.1 to 1 | 0.1 to 1 | 0.1 to 1 | 0.1 to 1 | < 0.1 | < 0.1 | 1 to 10 | 0.1 to 1 | B (B represents 100-1000 nM) |
| CN1CCN(c2ccc3nc(-c4cc5cn(C)nc5cc4O)ccc3n2)CC1 [Compound 116] | 1 to 10 | 1 to 10 | 0.1 to 1 | 0.1 to 1 | 1 to 10 | 1 to 10 | 1 to 10 | < 0.1 | 1 to 10 | 1 to 10 | C (C represents 1000-9999 nM) |
| CC1CN(c2ccc3nc(-c4cc5cn(C)nc5cc4O)ccc3n2)CCN1 (centres unmarked) [Compound 117] | 1 to 10 | 1 to 10 | 0.1 to 1 | 0.1 to 1 | 1 to 10 | 0.1 to 1 | 0.1 to 1 | < 0.1 | 1 to 10 | 0.1 to 1 | B (B represents 100-1000 nM) |
| CC1CN(c2ccc3nc(-c4cc5cn(C)nc5cc4O)ccc3n2)CCN1C (centres unmarked) [Compound 118] | 1 to 10 | 1 to 10 | 0.1 to 1 | 0.1 to 1 | > 10 | 1 to 10 | 0.1 to 1 | < 0.1 | 1 to 10 | 1 to 10 | C (C represents 1000-9999 nM) |
| CCC1CN(c2ccc3nc(-c4cc5cn(C)nc5cc4O)ccc3n2)CCN1 (centres unmarked) [Compound 119] | 0.1 to 1 | 0.1 to 1 | 0.1 to 1 | 0.1 to 1 | 0.1 to 1 | 0.1 to 1 | 0.1 to 1 | < 0.1 | 1 to 10 | 0.1 to 1 | B (B represents 100-1000 nM) |
| Cn1cc2cc(-c3ccc4nc(N5CCNC(C)(C)C5)ccc4n3)c(O)cc2n1 [Compound 120] | 1 to 10 | 1 to 10 | 0.1 to 1 | 0.1 to 1 | 1 to 10 | 1 to 10 | 1 to 10 | < 0.1 | 1 to 10 | 0.1 to 1 | B (B represents 100-1000 nM) |
| Cn1cc2cc(-c3ccc4nc(N5CCNC6(CC6)C5)ccc4n3)c(O)cc2n1 [Compound 121] | 1 to 10 | 1 to 10 | 0.1 to 1 | 0.1 to 1 | 1 to 10 | 1 to 10 | 1 to 10 | 1 to 10 | 1 to 10 | 0.1 to 1 | C (C represents 1000-9999 nM) |
